As usually defined, the IC50 is the concentration that gives 50% inhibition. By viability is commonly meant a read-out of living cells in per cent, often relative to untreated cells. Broadly, the AUC(0-inf) is the area under the concentration-time curve extrapolated to infinity. Broadly, the AUC(0-t) is exposure summed from dosing to a finite time, without extrapolation to infinity. Low values mean low exposure, high ones high exposure. As a reminder, the Cmax is the maximum level reached in the sampled fluid or tissue. Broadly, the Tmax is the time from dosing to the highest level. By half-life is commonly meant the time needed for the level to fall by half in the phase considered. Read a high half-life as slow loss.

The subject of data set [1] is LPS-mediated NO release in BV-2 microglial cells. Kind of data set: Griess assay: cellular NO release after LPS treatment. The format is cell-based, murine. The protocol: Cellular secretion of nitric oxide (NO) was quantified with the Griess assay. BV-2 cells were seeded on a clear flat bottom TC-treated 96-well plate (Corning; #3598) and sealed with breathable sealing tape (Axygen; BF-400-S). After 18 h, BV-2 cells were treated with compounds in the absence or presence of 100 ng/mL LPS (Sigma; L4391). After 24 h, 50 μL of the cell culture media was mixed with the same volume of Griess reagent {0.1% naphthylethylenediamine dihydrochloride (Sigma; #222488) and 1% sulfanilamide (Sigma; S9251) in 4% phosphoric acid (Daejung; #6532-4405)}. Absorbance at 550 nm was measured using a microplate reader (BioTek; Synergy). Sodium nitrite (Alfa Aesar; A18668) was used for standard curve generation.
Microglia are tissue-resident macrophages involved in CNS immunosurveillance[3],[39]. Microglial activation induces proinflammatory cytokine tumor necrosis factor α (TNF-α) expression, resulting in neural toxicity[5],[6]. Therefore, the inhibition of microglial activation is critical for regulating neuroinflammation. To discover anti-neuroinflammatory NCEs, we monitored the cellular release of nitric oxide (NO) in response to lipopolysaccharide (LPS) treatment as a mimic of pathogenic activation of innate immune systems upon compound treatment in BV-2 cells using the Griess assay.
A general note: Nitrite, measured by Griess reagent, commonly stands in for NO production.

Data set [2] in a line: Cell viability assay (EZ-Cytox). As to conditions: mouse, BV-2 microglial cells.
Procedure: (§1) A total of 40,000 cells were seeded on a 96-well plate and incubated for 18 h. After 6-, 12- and 24-h compound treatment, 10 μL of EZ-Cytox solution (Dogen; EZ-BULK150) was added to the 96-well plate. After 30 min, the absorbance at 455 nm was measured using a microplate reader (BioTek; Synergy).
(§2) (n=6). Data are presented as the mean ± SD.
Data set [3] relates to BV-2 cells. Kind of data set: Cell viability assay (EZ-Cytox). As to conditions: BV-2, various time points.
Procedure: as §1, §2
Data set [4] relates to NF-κB signaling pathway in BV-2 microglial cells. Kind of data set: qPCR of NF-κB downstream genes after LPS. In kind it is cell-based, murine. As to conditions: BV-2 cells, dose-dependent. How it is done: After cell lysis with RLT buffer (Qiagen), RNA was extracted using the RNAeasy PLUS Mini Kit (Qiagen; #74136). The resulting cDNA was generated using the AccuPower CycleScript RT PreMix (dT20) kit (Bioneer; K2044) on a C1000 Touch Thermal Cycler (Bio-Rad; #1841000). qPCR was performed using a KAPA SYBR® FAST qPCR Master Mix (2×) Universal Kit (Kapa; KK4605) on a StepOne Real-Time PCR system (Applied Biosystems; #4376357). The cycling threshold value of the endogenous control gene GAPDH was subtracted from the cycling threshold value of each target gene to calculate the shift in cycling threshold (ΔCT). […] The primer sequence information for this analysis is shown in Supplementary Table 3.
NF-κB is a central mediator that induces proinflammatory cytokines, including TNF-α, IL-1β, IL-6, and chemokines. […] The expression level of the proinflammatory cytokine TNF-α was also monitored with SB26019 treatment.
Fig. 2 SB26019 has anti-inflammatory activity via the accumulation of tubulin monomers. […]
In general terms: Real-time PCR tracks product formation cycle by cycle.

Data set [5] in a line: Pharmacokinetic (PK) study after IP injection. The settings on record: C57BL/6, mouse, in vivo, I.P., 5 mg/kg.

For the compound `COc1ccc2c(c1O)OC(C)(C)C=C2c1cccc2c1oc1ccccc12` [Compound 8], in data set [1] (Mus musculus, 10 μM, BV-2 cells, LPS, read-out: % NO inh. at 10 μM), the inhibition at 10 µM was determined as 102%. Further, in data set [1] (Mus musculus, BV-2 cells, 100 ng/mL LPS, 24 h), the IC50 was 1130 nM. For the same compound, the “Anti-neuroinflammatory activity in compensated Griess assay with Taxol” value in data set [1] (SB26019 5 μM, with or without tubulin stabilizer Taxol) is “attenuated in the presence of Taxol in a dose-dependent manner”. Also, the viability at 10 µM in data set [2] was determined as 108%. Besides, the “Cytotoxicity (cell viability curve)” value in data set [3] is reported as “without considerable cytotoxicity”. In data set [4], the “mRNA of inflammatory marker genes (Ccl2, Cxcl10, Il-1β, Il-6, Nos2, Tnf)” value is on record as “suppressed the production of inflammatory marker genes”. Also, in data set [5], the AUC(0-inf) worked out at 1790 ± 310 ng·h/mL, the AUC(0-t) came out at 1770 ± 300 ng·h/mL, the Cmax came out at 1200 ± 260 ng/mL and the Tmax was found to be 0.17 h. The compound further gave a half-life in data set [5] of 3.57 ± 0.62 h.

The values are drawn from publication PMC9743128, “Phenotype-based screening rediscovered benzopyran-embedded microtubule inhibitors as anti-neuroinflammatory agents by modulating the tubulin–p65 interaction” (Experimental & Molecular Medicine, 2022).
